No end group written: not given here.
Tests used:
normal rats [1] = test: CRRL-090 ISP intravenous infusion in normal rats: blood glucose and plasma insulin; assay type: in vivo, rat; details: 1 pmol/kg/minute for 210 minutes intravenous infusion
Procedure: CRRL-090 ISP was synthesized by direct protein synthesis and tested for biological activity in normal rats as follows. Two groups of normal rats were used. The first group included five normal rats, which were administered normal saline. The second group included seven normal rats, which were administered CRRL-090 (1 pmol/kg/minute for 210 minutes). Both administrations were via intravenous infusion.

[2] = system: diabetic rats (streptozotocin); test: CRRL-090 ISP chronic subcutaneous pump treatment of streptozotocin diabetic rats; assay type: in vivo, male Wistar rats
Procedure: CRRL-090 ISP was synthesized by direct protein synthesis and tested for biological activity in diabetic rats as follows. Three groups of male Wistar rats (six rats per group) were used: normal control group, diabetic control group, and diabetic group treated with CRRL-090 ISP. One dose of streptozotocin was administered intraperitoneally to induce diabetes in the rats of the diabetic control group and diabetic group treated with CRRL-090 ISP. Two months after induction of diabetes, ALZET pumps (obtained from DURECT Corporation, ALZET Osmotic Pumps, P.O. Box 530, Cupertino, Calif.; Model 1007D) configured to release 0.1 μg/kg/minute of CRRL-090 ISP or saline as control were serially implanted subcutaneously every 14 days over the course of one month (2 pumps, one on day 0 and another on day 14). Cardiac function was assessed by echocardiography, neurohormones were measured by radioimmunoassays. Fibrosis was determined by picrosirius red staining.

[3] = target: T1, GC-A particulate guanylate cyclase receptors (Homo sapiens, UniProt P16066); test: Cell cGMP assay in HEK293 cells stably transfected with GC-A; assay type: cell-based; details: 10^−10 M, 10^−8M, or 10^−6M polypeptide for 10 minutes (FIGS. 14, 15)
T1 construct: expressed in transfected cells; host or cells: HEK293
T1 sequence (P16066 33-1061): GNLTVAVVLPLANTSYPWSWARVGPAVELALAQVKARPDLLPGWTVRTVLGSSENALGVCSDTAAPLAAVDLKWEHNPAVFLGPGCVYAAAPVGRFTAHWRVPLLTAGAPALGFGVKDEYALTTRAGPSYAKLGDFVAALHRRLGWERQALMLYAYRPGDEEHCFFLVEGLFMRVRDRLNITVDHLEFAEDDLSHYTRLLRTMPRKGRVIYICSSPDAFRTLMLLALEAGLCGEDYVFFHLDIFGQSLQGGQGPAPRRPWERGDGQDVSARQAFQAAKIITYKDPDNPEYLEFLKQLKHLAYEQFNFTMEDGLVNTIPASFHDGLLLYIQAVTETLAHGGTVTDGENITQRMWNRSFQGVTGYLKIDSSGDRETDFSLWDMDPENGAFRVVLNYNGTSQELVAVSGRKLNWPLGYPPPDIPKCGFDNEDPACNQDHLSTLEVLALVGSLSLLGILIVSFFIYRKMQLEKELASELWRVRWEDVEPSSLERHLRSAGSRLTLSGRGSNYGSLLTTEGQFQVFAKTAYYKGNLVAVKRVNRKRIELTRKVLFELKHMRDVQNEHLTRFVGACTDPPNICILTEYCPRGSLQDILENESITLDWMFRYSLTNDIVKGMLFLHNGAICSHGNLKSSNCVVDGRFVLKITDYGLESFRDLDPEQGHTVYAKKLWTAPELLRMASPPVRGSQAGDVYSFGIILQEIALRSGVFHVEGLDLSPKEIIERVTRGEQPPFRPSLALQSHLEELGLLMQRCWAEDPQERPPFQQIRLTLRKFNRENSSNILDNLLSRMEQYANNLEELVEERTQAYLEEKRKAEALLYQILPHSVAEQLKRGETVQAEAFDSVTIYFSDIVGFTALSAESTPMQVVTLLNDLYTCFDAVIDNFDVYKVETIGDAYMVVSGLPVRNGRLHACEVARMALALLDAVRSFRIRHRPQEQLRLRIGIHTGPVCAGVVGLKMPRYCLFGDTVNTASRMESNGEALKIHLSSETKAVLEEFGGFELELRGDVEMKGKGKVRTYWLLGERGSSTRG

diabetic rats = test: Chronic CRRL-094 ISP-NP subcutaneous pump treatment of diabetic rats; assay type: in vivo, male Wistar rats; details: ALZET pumps subcutaneously 1 pmol/kg/minute
Text: Three groups of male Wistar rats were used: (1) normal non-diabetic control rats, (2) diabetic control rats, and (3) diabetic rats treated with CRRL-094 ISP-NP. Two months after induction of diabetes, ALZET pumps (obtained from DURECT Corporation, ALZET Osmotic Pumps, P.O. Box 530, Cupertino, Calif.; Model 1007D) filled with CRRL-094 ISP-NP in saline (dose=1 pmol/kg/minute) or saline as control were serially implanted subcutaneously every 14 days over the course of one month. After four weeks of treatment, blood glucose levels, plasma insulin levels, body weight, plasma and urine cGMP levels, and left ventricular hypertrophy were measured. Blood glucose levels and body weight also were measured after two weeks of treatment.

normal dogs = test: Chimeric polypeptide intravenous infusion in normal dogs: blood glucose, plasma insulin, plasma cGMP; assay type: in vivo, dog; details: normal dogs (n=2), intravenous infusion 10 or 100 pmol/kg/minute for 45 minutes; for plasma insulin: versus base line (FIG. 7); for plasma glucose: versus base line (FIG. 8); for plasma cGMP: versus base line (FIG. 9)
[4] = target: T2, GC-B particulate guanylate cyclase receptors (Homo sapiens, UniProt P20594); test: Cell cGMP assay in HEK293 cells stably transfected with GC-B; assay type: cell-based; details: 10^−10 M, 10^−8M, or 10^−6M polypeptide for 10 minutes (FIGS. 14, 15)
T2 construct: expressed in transfected cells; host or cells: HEK293
T2 sequence (P20594 23-1047): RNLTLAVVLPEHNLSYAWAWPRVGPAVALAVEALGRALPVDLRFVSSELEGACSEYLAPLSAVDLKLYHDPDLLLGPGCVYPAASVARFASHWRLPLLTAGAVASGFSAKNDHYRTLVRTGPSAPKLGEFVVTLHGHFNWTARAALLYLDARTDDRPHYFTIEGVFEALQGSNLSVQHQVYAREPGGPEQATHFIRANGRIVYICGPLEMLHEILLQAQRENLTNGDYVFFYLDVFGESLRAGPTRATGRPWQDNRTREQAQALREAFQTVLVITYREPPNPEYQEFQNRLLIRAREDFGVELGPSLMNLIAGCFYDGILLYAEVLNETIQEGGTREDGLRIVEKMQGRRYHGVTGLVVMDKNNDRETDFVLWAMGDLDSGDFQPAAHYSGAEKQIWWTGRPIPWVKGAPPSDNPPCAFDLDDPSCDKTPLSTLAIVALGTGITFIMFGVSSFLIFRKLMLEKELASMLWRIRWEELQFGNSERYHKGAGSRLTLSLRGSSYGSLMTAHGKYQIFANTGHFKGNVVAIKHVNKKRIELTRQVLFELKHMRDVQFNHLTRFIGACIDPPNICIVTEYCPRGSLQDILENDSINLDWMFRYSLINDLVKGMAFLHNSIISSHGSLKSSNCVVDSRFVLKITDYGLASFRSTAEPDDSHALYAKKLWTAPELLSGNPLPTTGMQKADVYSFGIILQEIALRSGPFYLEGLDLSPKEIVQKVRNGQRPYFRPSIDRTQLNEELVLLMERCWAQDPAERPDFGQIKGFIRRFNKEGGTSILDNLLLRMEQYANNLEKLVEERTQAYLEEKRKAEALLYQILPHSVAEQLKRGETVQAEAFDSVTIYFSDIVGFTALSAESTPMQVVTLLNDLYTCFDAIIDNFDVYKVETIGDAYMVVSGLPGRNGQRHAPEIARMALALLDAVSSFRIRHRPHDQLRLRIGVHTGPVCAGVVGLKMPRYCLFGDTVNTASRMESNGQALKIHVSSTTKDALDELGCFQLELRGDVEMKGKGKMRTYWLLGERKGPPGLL

normal rats [5] = test: Chimeric polypeptide infusion in normal rats: blood glucose and plasma insulin; assay type: in vivo, rat; details: IV infusion 1 pmol/kg/minute for 210 minutes
[6] = after four weeks, compared to diabetic rats treated with saline (FIG. 19)

Row | Substance | blood glucose levels (normal rats [1]; compared to control rats that received saline (FIG. 1)) | plasma insulin (normal rats [1]; compared to control rats that received saline (FIG. 2)) | blood glucose levels ([2]; ALZET pumps subcutaneously 0.1 μg/kg/minute for one month starting two months after streptozotocin, compared to diabetic controls (FIG. 3)) | plasma insulin levels ([2]; ALZET pumps subcutaneously 0.1 μg/kg/minute for one month, three months after streptozotocin, compared to diabetic controls (FIG. 4)) | glomerular filtration rate (GFR) ([2]; ALZET pumps subcutaneously 0.1 μg/kg/minute for one month, three months after streptozotocin, compared to diabetic controls (FIG. 5)) | left ventricular hypertrophy (LV/BW ratio) ([2]; ALZET pumps subcutaneously 0.1 μg/kg/minute for one month, three months after streptozotocin, compared to diabetic controls (FIG. 6)) | activation of GC-A receptors (cGMP levels) [3] | plasma insulin (diabetic rats; after four weeks, compared to diabetic rats treated with saline (FIG. 17)) | plasma cGMP (diabetic rats; [6]) | urine cGMP (diabetic rats; [6]) | left ventricular hypertrophy (Left Ventricular Mass, LVMd) (diabetic rats; after four weeks, compared to diabetic rats treated with saline (FIG. 20)) | blood glucose (diabetic rats; four weeks, compared to diabetic rats treated with saline (FIG. 16)) | body weight (diabetic rats; four weeks, compared to diabetic rats treated with saline (FIG. 18)) | plasma insulin (normal dogs) | plasma glucose (normal dogs) | plasma cGMP (normal dogs) | activation of GC-B receptors (cGMP levels) [4] | plasma insulin (normal rats [5]; compared to placebo control rats (FIGS. 10, 12)) | blood glucose (normal rats [5]; compared to placebo control rats (FIGS. 11, 13))
1 | HGEGTFTSDSEAFIWLGR-amide (HGEGTFTSDSEAFIWLGR-NH2) [CRRL-090 ISP] | lower blood glucose levels | increased plasma insulin | reduced blood glucose levels | increased plasma insulin levels | increased glomerular filtration rate | less left ventricular hypertrophy |  |  |  |  |  |  |  |  |  |  |  |  | 
2 | HGEGT-FTSDSEAFIWLGRRMDRIGLSKGCFGLKLDRIGSMSGLGCKVLRRH (HGEGTFTSDSEAFIWLGRRMDRIGLSKGCFGLKLDRIGSMSGLGCKVLRRH) [CRRL-094 ISP-NP] |  |  |  |  |  |  | activated both the GC-A and GC-B receptors | increased plasma insulin | increased plasma and urine cGMP | increased plasma and urine cGMP | reduced left ventricular hypertrophy | reduced blood glucose | reduced body weight | increase in plasma insulin | reduction in plasma glucose | increase | activated both the GC-A and GC-B receptors |  | 
3 | SPKMVQG-SGCFGRKMDRISSSSGLGCKVLRRHGEGTFTSDSEAFIWLGR [CRRL-092 ISP-NP] |  |  |  |  |  |  | activated the GC-A receptors |  |  |  |  |  |  | increase in plasma insulin | reduction in plasma glucose | increase | but not the GC-B receptors | increased plasma insulin | lower blood glucose

Reference: patent US10336803B2, “Insulin secreting polypeptides” (Mayo Foundation for Medical Education and Research, priority 2013, dated 2019)
